Measured values published in paper PMC3199867, “Targeting surface nucleolin with multivalent HB-19 and related Nucant pseudopeptides results in distinct inhibitory mechanisms depending on the malignant tumor cell type” (BMC Cancer, 2011).

What was measured:
Format in all cases: cell-based, human
[1] = tested on: SW620; assay: Cell growth / proliferation (cell number); settings: for Number of cells / % inhibition: counted seven days after seeding; for Number of cells: control 1,800,000; for % Growth inhibition After 3 days: SW620, N6 or N7 20 μM, viable cell number vs untreated control, mean of at least 2 independent experiments
Procedure: (§1) Human breast (MDA-MB-231, MDA-MB-435 [37]), prostate (LNCaP, from American Type Culture Collection, ATCC, Rockville, MD), and cervical (HeLa) epithelial cancer cells were grown in DMEM-glutamax medium (Gibco Invitrogen, Cergy-Pontoise, France) containing GlutaMAX™, 4.5 g/l glucose and supplemented with 10% heat-inactivated (56°C for 30 min) fetal bovine serum (FBS; Hyclone, Thermo Fisher Scientific, Inc). Human SW480 cells are derived from a grade 3-4 colon carcinoma, while the highly metastatic counterpart SW620 is established from the lymph node of a person. Both SW480 and SW620 cells (obtained from Francis Raul, IRCAD) are highly tumorigenic in nude mice. They were cultured in D-MEM, 10% FCS. The murine melanoma TIII cell line was obtained from Armelle Prévost-Blondel. Murine T29 lymphoma cells, obtained from Philippe Kastner (CNRS, Strasbourg), have been established from Ik^L/L tumors from mice carrying a hypomorphic mutation (Ik^L/L) in the Ikaros gene encoding a transcription factor that regulates lymphocyte differentiation, and acts also as a tumor suppressor in T lymphocytes. The T29 cells were cultured in RPMI medium containing 25 mM Hepes pH 7.6, 1 mM sodium pyruvate, and 10% FCS. Human leukemia cell lines, Jurkat (acute T cell leukemia), HuT 78 (cutaneous T lymphocyte), RAJI (Burkitt lymphoma), and HL60 (promyelocytic leukemia) were cultured in RPMI-1640 medium (Gibco) containing GlutaMAX™, and supplemented with 10% heat-inactivated FBS as described before. The wild-type Chinese hamster ovary cell line (CHO K1) was purchased from American Type Culture Collection (ATCC; Rockville, MD). The CHO LRP1-null cell line (CHO-13-5-1) was kindly provided by D. Strickland [47]. They were cultured in Ham's F12K medium. All cells were cultured with 10% (v/v) heat inactivated (56°C, 30 min) fetal bovine serum (FBS) (Roche Molecular Biochemicals, Indianapolis, IN) and 50 international units/mL penicillin-streptomycin (Invitrogen). Cell death was monitored conveniently by uptake of the trypan blue dye due to plasma membrane permeability of dying and/or dead cells.

[2] = tested on: SW480; assay: Cell growth / proliferation (cell number); settings: for Number of cells / % inhibition: counted seven days after seeding; for Number of cells: control 1,500,000; for % Growth inhibition After 3 days: SW480, N6 or N7 20 μM, viable cell number vs untreated control, mean of at least 2 independent experiments
Procedure: as §1

[3] = tested on: surface/cytoplasmic nucleolin; assay: Down regulation of surface/cytoplasmic nucleolin in MDA-MB 231 cells, immunoblotting; settings: MDA-MB 231, 10 μM, 16 hours, immunoblotting with mAb D3; nuclear nucleolin not affected
Procedure: Nucleolin was analyzed by immunoblotting using either the monoclonal antibody (mAb) D3 against nucleolin (kindly provided by Dr. J. S. Deng), or rabbit polyclonal antibodies directed against a synthetic peptide corresponding to the first 26 ([…]) and the last 16 ([…]) amino acid residues of human nucleolin as described before. […] The reacting bands were visualized with an enhanced chemiluminescence (ECL) reagent and by exposure to autoradiography film (Amersham Biosciences). In some experiments, the presence of actin was monitored as a control with mAb anti-actin A-4700 (Sigma). […]
Figure 2 HB-19 and related Nucant pseudopeptides antagonize surface nucleolin and trigger its down regulation. […] At 48 h post-infection, the β-galactosidase activity was measured in cell extracts directly to monitor HIV entry (Methods). The abscissa gives % Activity of surface nucleolin calculated from the optical density measurements at 570 nm. […] Cytoplasmic (containing cytoplasmic as well as surface nucleolin) and nuclear extracts were analyzed by immunoblotting using mAb D3 as described (Methods)(panels Surface/cytoplasmic NCL, Nuclear NCL). […] HeLa cells in the absence (histogram C) or presence of 1, 2, 5, and 10 μM of N6L were cultured for 7 hours before preparation of cell extracts and immunoblotting as in section B. The intensity of nucleolin protein bands was quantified by using the NIH image software. […]

[4] = tested on: MDA-MB-231; assay: Cell adhesion to plastic culture flask; settings: MDA-MB-231, 10 μM, adherent cells counted after 16 hours of culture
Description: (§2) A. Inhibition of Cell adhesion by N6. […] C. The effect of Nucant treatment on cell proliferation. […] The ordinates give the mean ± SD of triplicate samples. Statistical significance: **p < 0.01, ***p < 0.001.

[5] = tested on: LNCaP; assay: Cell adhesion to plastic culture flask; settings: 10 μM, adherent cells counted after 16 hours of culture
Description: as §2

[6] = tested on: MDA-MB-435; assay: Cell adhesion to plastic culture flask; settings: MDA-MB-435, 10 μM, adherent cells counted after 16 hours of culture
Description: as §2

| Substance | Number of cells ([1]; SW620, 10 μM added once 5 hours after seeding (20,000 cells/ml, 2 ml)) | % inhibition ([1]; SW620, 10 μM added once 5 hours after seeding) [%] | Number of cells ([1]; SW620, 20 μM added once 5 hours after seeding (20,000 cells/ml, 2 ml)) | % inhibition ([1]; SW620, 20 μM added once 5 hours after seeding) [%] | % Growth inhibition After 3 days [1] [%] | Number of cells ([2]; SW480, 10 μM added once 5 hours after seeding (20,000 cells/ml, 2 ml)) | % inhibition ([2]; SW480, 10 μM added once 5 hours after seeding) [%] | Number of cells ([2]; SW480, 20 μM added once 5 hours after seeding (20,000 cells/ml, 2 ml)) | % inhibition ([2]; SW480, 20 μM added once 5 hours after seeding) [%] | % Growth inhibition After 3 days [2] [%] | level of surface/cytoplasmic nucleolin [3] | degree of adhesion inhibition [4] [%] | degree of adhesion inhibition [5] [%] | degree of adhesion inhibition [6] [%] |
| --- | --- | --- | --- | --- | --- | --- | --- | --- | --- | --- | --- | --- | --- | --- |
| Ac-KAKPGKAKPGKAKPG-NH2 [Nucant N7, Presents hexavalently the pseudo-tripeptide Lysψ(CH2N)-Pro-Arg coupled to a similar template as in HB-19] | 1,000,000 | 44 | 700,000 | 61 | 45 | 1,200,000 | 20 | 900,000 | 40 | 25 | almost completely abolished | – | – | – |
| Ac-Lys-Aib-Gly-Lys-Aib-Gly-Lys-Aib-Gly-Lys-Aib-Gly-Lys-Aib-Gly-Lys-Aib-Gly-CONH2 [Nucant N6, Presents hexavalently the pseudo-tripeptide Lysψ(CH2N)-Pro-Arg coupled to the polypeptide template containing Aib] | – | – | – | – | 45 | – | – | – | – | 25 | almost completely abolished | 58 | 66 | 41 |
